Experimental findings from patent US20040058168A1, “Method for incorporating anionic molecules into a substrate for increasing dispersibility of anionic molecules” (priority 2002, published 2004) are described below.

The nature of data set [1]: Test-tube determination of anionic character: dye mixed with organoclay, clean clay or quat in water, centrifuged, judged visually. It is filed as physicochemical. Conditions: for Ionic character of the dye concluded from the test tubes: conclusion from Table 1 observations. The method, then:
Thus, the molecule or ion can be tested in order to determine whether it has an anionic character (and thus can undergo the present method) or a cationic character or a neutral character. In testing certain molecules or ions, the procedure described below was employed.
Using Jarocol Straw Yellow dye as a representative example, four 1 mg samples of the dye were weighed and placed in 4 test tubes.
Subsequently, 10 mL of water was added to each of the four test tubes, and all of the samples were mixed well for 30 seconds. The samples from each of the test tubes were then centrifuged for 15 minutes in a laboratory scale centrifuge.
The analysis herein was performed visually, since the six samples tested were dyes. […] For example, for a non-dye sample, the clay may be separated from the water, both parts may be taken to dryness, and the IR spectrum of each may be recorded.

Data set [2] in a line: Equivalence point of anionic dye added to organoclay (water phase begins to turn a weak color). It is filed as physicochemical. The source says:
The objective of the present Example was not only to determine the equivalence points at a fixed clay:quat ratio for the four anionic dyes listed above, but also to determine the effects that varying the clay:quat ratio had on the dye equivalence. The equivalence point for each anionic dye was recognized as the moment when the water phase of the anionic dye/organoclay composition began to turn a weak color. In other words, the equivalence point for each dye indicated the point at which the anionic dye would bleed or fail to be dispersible when the dye/organoclay composition is placed in an aqueous environment. This equivalence point, then, also indicates the point at which the weak bonding sites on the clay have been satisfied.
Determination of the equivalence point for the four anionic dyes began with the preparation of the organoclay and the subsequent addition of the dye to form the anionic dye/organoclay compositions. The organoclay, having a clay:quat ratio of 1.0:0.77, was prepared by first heating 150 grams of clay slurry (wherein the clay slurry comprises 3.24 grams of bentonite clay and thus comprises 2.16% solids) on a hot plate to approximately 65° C. Simultaneously, 2.495 grams of quat were dissolved in hot water. The quat used in this Example was Adogen 442, and the solution contained a quat:water ratio of 1:20. The quat solution was placed on the same hot plate and heated to 65° C., while being stirred to aid in the dissolution of the quat.
The bentonite clay slurry was added to a Waring blender and was allowed to mix under high speed agitation (speed 6) for about 1 minute. The quat solution was then added slowly to the clay slurry and was allowed to react for approximately 25-30 minutes. After this time, the blender was stopped for a few seconds to ensure adequate floccing.
The process described above was repeated using several different clay:quat ratios including 1:0.5 and 1:0.6 (less quat than the experiment described above) and 1:0.9 (an excess of quat with respect to the experiment described above).

[3] abbreviates: Clay:Quat Ratio of 1:0.77, 3.24 g bentonite clay, quat Adogen 442.

Take `O=C(O)c1nn(-c2ccc(S(=O)(=O)O)cc2)c(O)c1N=Nc1ccc(S(=O)(=O)O)cc1` [FD&C Yellow No. 5]: the “Ionic character of the dye concluded from the test tubes” value (from here on “Ionic character of the dye concluded”) in data set [1] is “anionic in nature”.

For the molecule `Cc1ccc(N=Nc2c([O-])c(C(=O)O)cc3ccccc23)c(S(=O)(=O)[O-])c1.[Na+].[Na+]` [Lithol Rubine B], the “Equivalence Point” value was 0.0693 grams in data set [2] (Clay:Quat Ratio of 1:0.5), 0.1471 grams in data set [2] (Clay:Quat Ratio of 1:0.6) and 0.4103 grams in data set [2] (setting [3]). Further, in data set [2] (clay:quat ratios of 1:0.77, 1:0.6 and 1:0.5), the “Color change of dye on incorporation into organoclay” value was “color change took place”. The “Test Tube 3 (10 mg Quat) visual observation” value in data set [1] (1 mg sample + 10 mg quat, 10 mL water, mixed 30 seconds, centrifuged 15 minutes) is “the quat layer was dark red and the water layer was clear”. For the same molecule, the “Test Tube 4 (Control, sample only) visual observation” value in data set [1] (1 mg sample only, 10 mL water, mixed 30 seconds, centrifuged 15 minutes) is given as “Water was red”. Further, the “Ionic character of the dye concluded” value in data set [1] is listed as “requisite anionic character”.

As to `CN(C)c1ccc2nc3ccc(=[N+](C)C)cc-3sc2c1` [Methylene Blue, reference compound], the “Ionic character of the dye concluded” value in data set [1] is “cationic in nature”.

As to D&C Green No. 5, the “Equivalence Point” value in data set [2] (setting [3]) came to 0.4853 grams.

Regarding FD&C Blue No. 1, the “Equivalence Point” value in data set [2] (setting [3]) came to 0.3750 grams. Moreover, the “Ionic character of the dye concluded” value in data set [1] is reported as “anionic in nature”.
